# Source: PubChem BioAssay (NCI)
#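 At the GI50, growth is halved. TGI marks complete inhibition of growth.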
# Key:
# Experiment in all cases: growth of human tumour cells (NCI), 384-well format
# UACC-257 melanoma = test system: UACC-257 melanoma
# UO-31 renal = test system: UO-31 renal
# IGROV1 ovarian = test system: IGROV1 ovarian
# HS 578T breast = test system: HS 578T breast
# SK-OV-3 ovarian = test system: SK-OV-3 ovarian
# SK-MEL-5 melanoma = test system: SK-MEL-5 melanoma
# DU-145 prostate = test system: DU-145 prostate
# HOP-62 NSCLC = test system: HOP-62 NSCLC
# HCT-15 colon = test system: HCT-15 colon
# CCRF-CEM leukemia = test system: CCRF-CEM leukemia
# MOLT-4 leukemia = test system: MOLT-4 leukemia
# HOP-92 NSCLC = test system: HOP-92 NSCLC
# MCF7 breast = test system: MCF7 breast
# MALME-3M melanoma = test system: MALME-3M melanoma
# COLO 205 colon = test system: COLO 205 colon
# KM12 colon = test system: KM12 colon
# SK-MEL-28 melanoma = test system: SK-MEL-28 melanoma
# SW-620 colon = test system: SW-620 colon
# NCI/ADR-RES ovarian = test system: NCI/ADR-RES ovarian
# SF-268 CNS = test system: SF-268 CNS
# RXF 393 renal = test system: RXF 393 renal
# RPMI-8226 leukemia = test system: RPMI-8226 leukemia
# LOX IMVI melanoma = test system: LOX IMVI melanoma
# MDA-MB-231 breast = test system: MDA-MB-231 breast
# ACHN renal = test system: ACHN renal
# NCI-H460 NSCLC = test system: NCI-H460 NSCLC
# EKVX NSCLC = test system: EKVX NSCLC
# 786-0 renal = test system: 786-0 renal
# BT-549 breast = test system: BT-549 breast
# SNB-19 CNS = test system: SNB-19 CNS
# HCT-116 colon = test system: HCT-116 colon
# T-47D breast = test system: T-47D breast
# A498 renal = test system: A498 renal
# SR leukemia = test system: SR leukemia
# SN12C renal = test system: SN12C renal
# NCI-H322M lung = test system: NCI-H322M lung
# A549 NSCLC = test system: A549 NSCLC
# NCI-H23 lung = test system: NCI-H23 lung
# OVCAR-3 ovarian = test system: OVCAR-3 ovarian
# SF-539 CNS = test system: SF-539 CNS
# OVCAR-4 ovarian = test system: OVCAR-4 ovarian
# MDA-MB-435 melanoma = test system: MDA-MB-435 melanoma
# HL-60(TB) leukemia = test system: HL-60(TB) leukemia
# UACC-62 melanoma = test system: UACC-62 melanoma
# SNB-75 CNS = test system: SNB-75 CNS
# PC-3 prostate = test system: PC-3 prostate
# NCI-H522 lung = test system: NCI-H522 lung
# MDA-MB-468 breast = test system: MDA-MB-468 breast
# OVCAR-8 ovarian = test system: OVCAR-8 ovarian
# NCI-H226 lung = test system: NCI-H226 lung
# U251 glioblastoma = test system: U251 glioblastoma
# CAKI-1 renal = test system: CAKI-1 renal
# M14 melanoma = test system: M14 melanoma
# SF-295 CNS = test system: SF-295 CNS
# TK-10 renal = test system: TK-10 renal
# OVCAR-5 ovarian = test system: OVCAR-5 ovarian
# HCC-2998 colon = test system: HCC-2998 colon
smiles,measurement,setting,value
CNC(=O)c1cc(Oc2ccc(NC(=O)Nc3ccc(Cl)c(C(F)(F)F)c3)c(F)c2)ccn1,GI50,UACC-257 melanoma,2.45 µM
same,TGI,UACC-257 melanoma,9.07 µM
same,GI50,UO-31 renal,2.02 µM
same,TGI,UO-31 renal,5.44 µM
same,GI50,IGROV1 ovarian,2.8 µM
same,TGI,IGROV1 ovarian,14.5 µM
same,GI50,HS 578T breast,2.33 µM
same,TGI,HS 578T breast,7.35 µM
same,GI50,SK-OV-3 ovarian,3.2 µM
same,TGI,SK-OV-3 ovarian,9.43 µM
same,GI50,SK-MEL-5 melanoma,1.6 µM
same,TGI,SK-MEL-5 melanoma,3.86 µM
same,GI50,DU-145 prostate,3.02 µM
same,TGI,DU-145 prostate,9.32 µM
same,GI50,HOP-62 NSCLC,2.98 µM
same,TGI,HOP-62 NSCLC,10.1 µM
same,GI50,HCT-15 colon,2.52 µM
same,TGI,HCT-15 colon,9.38 µM
same,GI50,CCRF-CEM leukemia,3.4 µM
same,TGI,CCRF-CEM leukemia,8.05 µM
same,GI50,MOLT-4 leukemia,1.7 µM
same,TGI,MOLT-4 leukemia,3.2 µM
same,GI50,HOP-92 NSCLC,2.27 µM
same,TGI,HOP-92 NSCLC,5.43 µM
same,GI50,MCF7 breast,1.93 µM
same,TGI,MCF7 breast,5.47 µM
same,GI50,MALME-3M melanoma,0.719 µM
same,TGI,MALME-3M melanoma,3.09 µM
same,GI50,COLO 205 colon,1.64 µM
same,TGI,COLO 205 colon,4.7 µM
same,GI50,KM12 colon,3.03 µM
same,TGI,KM12 colon,15.5 µM
same,GI50,SK-MEL-28 melanoma,1.39 µM
same,TGI,SK-MEL-28 melanoma,8.75 µM
same,GI50,SW-620 colon,2.97 µM
same,TGI,SW-620 colon,13.9 µM
same,GI50,NCI/ADR-RES ovarian,2.06 µM
same,TGI,NCI/ADR-RES ovarian,5.1 µM
same,GI50,SF-268 CNS,4.28 µM
same,TGI,SF-268 CNS,14.4 µM
same,GI50,RXF 393 renal,2.49 µM
same,TGI,RXF 393 renal,4.98 µM
same,GI50,RPMI-8226 leukemia,1.73 µM
same,TGI,RPMI-8226 leukemia,3.3 µM
same,GI50,LOX IMVI melanoma,1.39 µM
same,TGI,LOX IMVI melanoma,3.99 µM
same,GI50,MDA-MB-231 breast,1.35 µM
same,TGI,MDA-MB-231 breast,3.47 µM
same,GI50,ACHN renal,3.38 µM
same,TGI,ACHN renal,25.1 µM
same,GI50,NCI-H460 NSCLC,3.08 µM
same,TGI,NCI-H460 NSCLC,10.7 µM
same,GI50,EKVX NSCLC,2.12 µM
same,TGI,EKVX NSCLC,5.43 µM
same,GI50,786-0 renal,2.47 µM
same,TGI,786-0 renal,7.76 µM
same,GI50,BT-549 breast,3.2 µM
same,TGI,BT-549 breast,7.34 µM
same,GI50,SNB-19 CNS,4.65 µM
same,TGI,SNB-19 CNS,> 88.5 µM
same,GI50,HCT-116 colon,1.77 µM
same,TGI,HCT-116 colon,8.6 µM
same,GI50,T-47D breast,1.56 µM
same,TGI,T-47D breast,6.73 µM
same,GI50,A498 renal,3.66 µM
same,TGI,A498 renal,21.7 µM
same,GI50,SR leukemia,1.47 µM
same,TGI,SR leukemia,2.82 µM
same,GI50,SN12C renal,3.16 µM
same,TGI,SN12C renal,11 µM
same,GI50,NCI-H322M lung,2.66 µM
same,TGI,NCI-H322M lung,6.21 µM
same,GI50,A549 NSCLC,2.66 µM
same,TGI,A549 NSCLC,8.57 µM
same,GI50,NCI-H23 lung,1.34 µM
same,TGI,NCI-H23 lung,3.43 µM
same,GI50,OVCAR-3 ovarian,4.55 µM
same,TGI,OVCAR-3 ovarian,12.6 µM
same,GI50,SF-539 CNS,2.13 µM
same,TGI,SF-539 CNS,6.63 µM
same,GI50,OVCAR-4 ovarian,2.55 µM
same,TGI,OVCAR-4 ovarian,7.25 µM
same,GI50,MDA-MB-435 melanoma,3.14 µM
same,TGI,MDA-MB-435 melanoma,14.6 µM
same,GI50,HL-60(TB) leukemia,0.734 µM
same,TGI,HL-60(TB) leukemia,1.97 µM
same,GI50,UACC-62 melanoma,2.09 µM
same,TGI,UACC-62 melanoma,7.66 µM
same,GI50,SNB-75 CNS,5.14 µM
same,TGI,SNB-75 CNS,12.9 µM
same,GI50,PC-3 prostate,3.79 µM
same,TGI,PC-3 prostate,16.3 µM
same,GI50,NCI-H522 lung,2.83 µM
same,TGI,NCI-H522 lung,> 24.7 µM
same,GI50,MDA-MB-468 breast,1.72 µM
same,TGI,MDA-MB-468 breast,4.31 µM
same,GI50,OVCAR-8 ovarian,2.17 µM
same,TGI,OVCAR-8 ovarian,5.79 µM
same,GI50,NCI-H226 lung,1.93 µM
same,GI50,U251 glioblastoma,3.06 µM
same,TGI,U251 glioblastoma,11 µM
same,GI50,CAKI-1 renal,2.67 µM
same,TGI,CAKI-1 renal,7.59 µM
same,GI50,M14 melanoma,1.69 µM
same,TGI,M14 melanoma,8.56 µM
same,GI50,SF-295 CNS,2.13 µM
same,TGI,SF-295 CNS,6.02 µM
same,GI50,TK-10 renal,3.49 µM
same,TGI,TK-10 renal,76.2 µM
same,GI50,OVCAR-5 ovarian,5.79 µM
same,TGI,OVCAR-5 ovarian,28.5 µM
same,GI50,HCC-2998 colon,2.04 µM
same,TGI,HCC-2998 colon,5.98 µM
